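Test compounds were applied to cells in 96-well plates for 48 hours at 5 doses. GI50 = concentration required for 50% inhibition of growth.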 Calls of active or inactive are those of the source. Rule as the data show it: active = GI50 up to about 1.1 µM and inactive = higher. Square brackets hold non-standard residues; d marks the D form. Peptide text beside a SMILES is read from it. * marks the point of attachment. Phe(4-NO2) = N[CH](Cc1ccc([N+](=O)[O-])cc1)C(=O)O; Boc = CC(C)(C)OC(=O)*
What was measured:
Assay in all cases: growth of human tumour cells (NCI), 48 h
[1] = test system: KM12
[2] = test system: HT-29
[3] = test system: HOP-62
[4] = test system: UACC-257
[5] = test system: MOLT-4
[6] = test system: Malme-3M
[7] = test system: 786-0
[8] = test system: HCT-15
[9] = test system: OVCAR-4
[10] = test system: EKVX
[11] = test system: DU-145
[12] = test system: SK-MEL-5
[13] = test system: Hs-578T
[14] = test system: OVCAR-8
[15] = test system: SNB-19
[16] = test system: MDA-N
[17] = test system: SW-620
[18] = test system: NCI-H460
[19] = test system: HL-60

Row | SMILES | GI50 [1] | GI50 [2] | GI50 [3] | GI50 [4] | GI50 [5] | GI50 [6] | GI50 [7] | GI50 [8] [µM] | GI50 [9] | GI50 [10] | GI50 [11] | GI50 [12] | GI50 [13] | GI50 [14] | GI50 [15] | GI50 [16] | GI50 [17] | GI50 [18] | GI50 [19]
1 | Nc1nc(Cl)cc(NCC2(CO)CCC(O)C2)n1 (stereo not given) | > 100 µM (inactive) | > 100 µM (inactive) | > 100 µM (inactive) | > 100 µM (inactive) | > 100 µM (inactive) | > 100 µM (inactive) | > 100 µM (inactive) | > 100 | > 100 µM (inactive) | > 100 µM (inactive) | > 100 µM (inactive) | > 100 µM (inactive) | > 100 µM (inactive) | > 100 µM (inactive) | > 100 µM (inactive) | > 100 µM (inactive) | > 100 µM (inactive) | > 100 µM (inactive) | > 100 µM (inactive)
2 | CCN1CCC(O)(c2ccc(Oc3ccc(Cl)cc3)cc2)C(C(=O)c2ccc(Oc3ccc(Cl)cc3)cc2)C1 (stereo not given) | 2.56 µM (inactive) | 5.07 µM (inactive) | 9.48 µM (inactive) | 13.3 µM (inactive) | 8.45 µM (inactive) | 17.2 µM (inactive) | 3.55 µM (inactive) | 7.35 | 14.3 µM (inactive) | 16.8 µM (inactive) | 16.5 µM (inactive) | 12.2 µM (inactive) | 20.7 µM (inactive) | 17.1 µM (inactive) | 14.5 µM (inactive) | 14 µM (inactive) | 12.8 µM (inactive) | 3.76 µM (inactive) | 1.8 µM (inactive)
3 | Cc1cccc(/N=N/c2c(C)nn(C(=O)CC(=O)Nc3ccccc3)c2C)c1 | > 100 µM (inactive) | > 100 µM (inactive) | > 100 µM (inactive) | > 10 µM (inactive) | > 100 µM (inactive) | > 100 µM (inactive) | > 100 µM (inactive) | > 100 | > 100 µM (inactive) | > 100 µM (inactive) | > 100 µM (inactive) | > 100 µM (inactive) | > 100 µM (inactive) | > 100 µM (inactive) | > 100 µM (inactive) | > 100 µM (inactive) | > 100 µM (inactive) | > 100 µM (inactive) | > 100 µM (inactive)
4 | C=C1c2cc3c(cc2CC12Cc1cc4c(cc1C2=O)CCC4)CCC3 (stereo not given) | – | > 100 µM (inactive) | > 100 µM (inactive) | > 100 µM (inactive) | > 100 µM (inactive) | > 100 µM (inactive) | > 100 µM (inactive) | > 100 | > 100 µM (inactive) | > 100 µM (inactive) | > 100 µM (inactive) | > 100 µM (inactive) | > 100 µM (inactive) | > 100 µM (inactive) | > 100 µM (inactive) | > 100 µM (inactive) | > 100 µM (inactive) | > 100 µM (inactive) | > 100 µM (inactive)
5 | COc1ccc(-c2cc(=O)c3c(O)cc(C)cc3o2)cc1OC | > 100 µM (inactive) | > 100 µM (inactive) | > 100 µM (inactive) | > 100 µM (inactive) | > 100 µM (inactive) | > 100 µM (inactive) | > 100 µM (inactive) | > 100 | > 100 µM (inactive) | > 100 µM (inactive) | > 100 µM (inactive) | > 100 µM (inactive) | > 100 µM (inactive) | – | > 100 µM (inactive) | > 100 µM (inactive) | > 100 µM (inactive) | > 100 µM (inactive) | > 100 µM (inactive)
6 | COc1ccc([N+](=O)[O-])c2c(NCCCN(C)C)c(C)c(C)nc12 | > 100 µM (inactive) | 42.6 µM (inactive) | 89.5 µM (inactive) | > 100 µM (inactive) | > 100 µM (inactive) | 45.1 µM (inactive) | > 100 µM (inactive) | 22.4 | 27.8 µM (inactive) | – | > 100 µM (inactive) | 46.8 µM (inactive) | > 100 µM (inactive) | > 100 µM (inactive) | 44.8 µM (inactive) | > 100 µM (inactive) | 54 µM (inactive) | 34.4 µM (inactive) | 42.9 µM (inactive)
7 | O=c1[nH]nc(-c2ccc3ccccc3c2)[nH]1 | 36.2 µM (inactive) | > 100 µM (inactive) | > 100 µM (inactive) | > 100 µM (inactive) | > 100 µM (inactive) | > 100 µM (inactive) | > 100 µM (inactive) | > 100 | > 100 µM (inactive) | 0.282 µM (active) | > 100 µM (inactive) | – | 2.81 µM (inactive) | > 100 µM (inactive) | > 100 µM (inactive) | > 100 µM (inactive) | > 100 µM (inactive) | > 100 µM (inactive) | > 100 µM (inactive)
8 | CNC(=O)CCC(NC(=O)OC(C)(C)C)C(=O)NC(Cc1ccc([N+](=O)[O-])cc1)C(=O)NCC(=O)NC (stereo not given) (Boc-Glu(NHMe)-[Phe(4-NO2)]-Gly-NHMe; configuration not given here) | > 100 µM (inactive) | > 100 µM (inactive) | > 100 µM (inactive) | – | > 100 µM (inactive) | > 100 µM (inactive) | > 100 µM (inactive) | > 100 | > 100 µM (inactive) | > 100 µM (inactive) | > 100 µM (inactive) | > 100 µM (inactive) | > 100 µM (inactive) | > 100 µM (inactive) | > 100 µM (inactive) | > 100 µM (inactive) | > 100 µM (inactive) | > 100 µM (inactive) | > 100 µM (inactive)
9 | Nc1ccccc1C(=O)CCc1c[nH]c2ccccc12 | > 100 µM (inactive) | > 100 µM (inactive) | 32.2 µM (inactive) | > 100 µM (inactive) | > 100 µM (inactive) | > 100 µM (inactive) | 46.2 µM (inactive) | 93.3 | 20.3 µM (inactive) | 48.3 µM (inactive) | > 100 µM (inactive) | – | 24.2 µM (inactive) | > 100 µM (inactive) | 92.3 µM (inactive) | > 100 µM (inactive) | > 100 µM (inactive) | > 100 µM (inactive) | > 100 µM (inactive)
10 | O=C(Nc1sccc1S(=O)(=O)c1ccc(Cl)cc1)c1ccc(F)cc1F | > 100 µM (inactive) | > 100 µM (inactive) | 24.9 µM (inactive) | > 100 µM (inactive) | 20.4 µM (inactive) | 31.9 µM (inactive) | 18.7 µM (inactive) | 66.4 | 21.2 µM (inactive) | 19.6 µM (inactive) | 53.1 µM (inactive) | 49.4 µM (inactive) | 26.2 µM (inactive) | 30.9 µM (inactive) | 21.9 µM (inactive) | > 100 µM (inactive) | 73.1 µM (inactive) | – | > 100 µM (inactive)
11 | C=CCn1c(S)nnc1C12CC3CC(CC(C3)C1)C2 | 75.5 µM (inactive) | 50.1 µM (inactive) | > 100 µM (inactive) | 52.2 µM (inactive) | 20.9 µM (inactive) | > 100 µM (inactive) | > 100 µM (inactive) | 44.3 | 58.7 µM (inactive) | – | 69.3 µM (inactive) | – | > 100 µM (inactive) | 92.9 µM (inactive) | > 100 µM (inactive) | 45.4 µM (inactive) | > 100 µM (inactive) | 53.5 µM (inactive) | 17.2 µM (inactive)
